Drawing on patent US8242098B2, “Methods of treating hormone-related conditions using thio-oxindole derivatives” (Wyeth LLC, priority 2002, dated 2012), this text covers antagonistic activity and agonistic activity for one compound.

Experiment [1] has as its target T1, androgen receptor (AR) (Mus musculus, UniProt P19091).
T1 construct: in the L929 cells which express the AR but not the PR; endogenous in cells; host or cells: L929 cells
T1 sequence (P19091 1-899): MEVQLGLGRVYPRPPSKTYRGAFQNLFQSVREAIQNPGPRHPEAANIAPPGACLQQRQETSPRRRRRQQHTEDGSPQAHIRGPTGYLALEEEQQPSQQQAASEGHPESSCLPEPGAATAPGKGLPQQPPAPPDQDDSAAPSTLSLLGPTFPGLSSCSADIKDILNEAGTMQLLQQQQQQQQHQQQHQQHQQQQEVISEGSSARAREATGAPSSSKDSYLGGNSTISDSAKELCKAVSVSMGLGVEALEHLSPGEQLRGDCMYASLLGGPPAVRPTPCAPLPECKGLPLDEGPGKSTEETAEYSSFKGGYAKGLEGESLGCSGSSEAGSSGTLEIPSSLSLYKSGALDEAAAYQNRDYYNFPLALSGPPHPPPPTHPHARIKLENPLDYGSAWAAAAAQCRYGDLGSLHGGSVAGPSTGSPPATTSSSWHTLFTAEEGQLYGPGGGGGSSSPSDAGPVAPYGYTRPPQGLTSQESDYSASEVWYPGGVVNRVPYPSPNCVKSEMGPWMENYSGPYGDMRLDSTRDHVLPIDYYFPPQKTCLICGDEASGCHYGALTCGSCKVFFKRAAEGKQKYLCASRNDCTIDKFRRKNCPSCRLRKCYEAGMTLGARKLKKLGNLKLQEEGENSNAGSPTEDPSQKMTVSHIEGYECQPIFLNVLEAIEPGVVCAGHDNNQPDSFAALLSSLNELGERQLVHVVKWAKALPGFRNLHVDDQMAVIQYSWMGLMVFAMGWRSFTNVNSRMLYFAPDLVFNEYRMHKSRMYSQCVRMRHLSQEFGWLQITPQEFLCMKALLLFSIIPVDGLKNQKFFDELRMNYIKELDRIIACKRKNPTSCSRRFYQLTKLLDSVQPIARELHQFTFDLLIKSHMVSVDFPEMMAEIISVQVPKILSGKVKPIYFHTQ
The experiment in a line: Anti-androgenic activity, PRE-tk-luciferase reporter in L929 cells co-treated with 3 nM DHT. Particulars: nine point dose response. It counts as cell-based. As for the experimental part:
(§1) The androgen receptor (AR) agonistic and antagonistic activity of the compositions of the invention in the L929 cells which express the AR but not the PR was evaluated as described in Zhang et al., Steroids, 65(10-11): 637-643 (October-November 2000).
(§2) Cells were plated in 96-well plates at 25,000 cells/well in DMEM (BioWhittaker) with 10% (v/v) fetal bovine serum (FBS). The next day, cells were infected with the adenovirus PRE-tk-luciferase reporter construct (2×10^9 pfu/ml particles) and kept in DMEM containing 10% charcoal stripped FBS for an additional 24 hours. […] To test the anti-androgenic activity, cells were co-treated with 3 nM DHT. Luciferase activity was measured 24 hours following the treatment.
For orientation: A reporter such as luciferase makes a cellular process visible.

The target in experiment [2] is T1, androgen receptor (AR). The experiment in a line: AR agonistic activity, PRE-tk-luciferase reporter in L929 cells. Particulars: at the maximum concentration tested (i.e., 10 nM). It counts as cell-based. On the procedure:
as §1, §2

Molecules are shown by their SMILES.

Turning to `Cn1c(C#N)ccc1-c1ccc2c(c1)C1(CCCCC1)C(=NC#N)N2` [5′-(5-Cyano-1-methyl-1H-pyrrol-2-yl)spiro[cyclohexane-1,3′-[3H]indol]-2′-ylidenecyanamide], the antagonistic activity entry on androgen receptor (AR) [1] was “significant antagonistic activity”. The agonistic activity entry on androgen receptor (AR) [2] is “only marginal agonistic activity”.
